# Measurements taken from US9790169B2, “IDO inhibitors” (BRISTOL-MYERS SQUIBB COMPANY, priority 2015, dated 2017).
# Biological target: human IDO1 (Homo sapiens, UniProt P14902)
# Test: Assessment of human IDO-1 inhibitory activity in Hela cells (Interferon-gamma stimulated HeLa cells, Ehrlich reagent, absorbance 490 nm)
# Type: cell-based
# Parameters: endogenous in cells; host or cells: HeLa cells stimulated with interferon-gamma
# Details: Hela Human IDO-1 cellular assay
# Method in brief: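 IDO activity induced by 18 h IFN-γ (human 10 ng/ml or murine 5 ng/ml, final) after 1 h compound pre-treatment of HeLa cells at 37 °C. Supernatant kynurenine detected via Ehrlich reagent absorbance at 490 nm following 3% TCA at 50 °C; IC50 set against no-IFN-γ and untreated-stimulated controls.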
# human IDO1, sequence (P14902 whole entry): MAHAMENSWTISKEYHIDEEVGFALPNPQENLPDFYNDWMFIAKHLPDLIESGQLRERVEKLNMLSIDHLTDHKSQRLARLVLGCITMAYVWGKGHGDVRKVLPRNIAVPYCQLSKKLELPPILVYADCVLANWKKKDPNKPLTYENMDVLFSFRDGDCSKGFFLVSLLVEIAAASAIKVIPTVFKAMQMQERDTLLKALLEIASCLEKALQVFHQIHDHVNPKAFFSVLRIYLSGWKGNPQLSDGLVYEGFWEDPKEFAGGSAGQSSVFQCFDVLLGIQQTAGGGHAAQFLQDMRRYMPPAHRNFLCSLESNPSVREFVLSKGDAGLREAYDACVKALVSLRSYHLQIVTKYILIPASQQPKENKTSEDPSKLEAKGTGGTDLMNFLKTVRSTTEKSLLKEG
row,SMILES,IC50
1,"CCC(CC(=O)O)c1cc(F)c(N(CC)C2CCOCC2)c(Nc2ccc(OC)nc2)c1 (single isomer, unassigned) [Example 137, 3-(4-(ethyl(tetrahydro-2H-pyran-4-yl)amino)-3-fluoro-5-((6-methoxypyridin-3-yl)amino)phenyl) pentanoic acid]",< 50 nM
2,"CCCN(c1ccc(C(COC)CC(=O)O)cc1Nc1ccc(F)cc1)C1CCS(=O)(=O)CC1 (single isomer, unassigned) [Example 184, 3-(4-((1,1-dioxidotetrahydro-2H-thiopyran-4-yl)(propyl)amino)-3-((4-fluorophenyl)amino)phenyl)-4-methoxybutanoic acid]",< 5 nM
3,"CCN(c1ccc([C@H](CC(=O)O)C(F)(F)F)cc1Nc1cnc(OC)nc1)C1CCOCC1 [Example 599, (S)-3-(4-(ethyl(tetrahydro-2H-pyran-4-yl)amino)-3-((2-methoxypyrimidin-5-yl)amino)phenyl)-4,4,4-trifluorobutanoic acid]",< 50 nM
4,"CCOc1ncc(Nc2cc(C(CC)CC(=O)O)c(F)cc2N(CC)C2CCOCC2)cn1 (single isomer, unassigned) [Example 860, 3-(5-((2-ethoxy-pyrimidin-5-yl)amino)-4-(ethyl(tetra-hydro-2H-pyran-4-yl)amino)-2-fluorophenyl) pentanoic acid]",< 5 nM
5,"COCCN(c1ccc(C(COC)CC(=O)O)cc1Nc1ccc(Cl)cc1)C1CCOCC1 (single isomer, unassigned) [Example 256 Enantiomer 1, 3-(3-((4-Chlorophenyl)amino)-4-((2-methoxyethyl)(tetrahydro-2H-pyran-4-yl)amino)phenyl)-4-methoxybutanoic acid]",< 5 nM
6,"CCN(c1ccc(C(CC(=O)O)C2CC2)cc1NC(=O)Nc1ccc(C)cc1)C1CCOCC1 (single isomer, unassigned) [Example 40 Enantiomer 2, 3-Cyclopropyl-3-(4-(ethyl(tetrahydro-2H-pyran-4-yl)amino)-3-(3-(p-tolyl)ureido)phenyl)propanoic acid]",< 50 nM
7,"CCN(c1ccc([C@@H](CC(=O)O)C(F)(F)F)cc1NC(=O)Nc1ccc(Cl)cc1F)C1CCOCC1 (single isomer, unassigned) [Example 1270]",< 50 nM
8,"CCCN(c1ccc(C(C)(C)CC(=O)O)cc1Nc1cnc(OC)nc1)C1CCOCC1 [Example 23, 3-(3-((2-methoxypyrimidin-5-yl)amino)-4-(propyl(tetrahydro-2H-pyran-4-yl)amino)phenyl)-3-methylbutanoic acid]",< 50 nM
9,"CCC(CC(=O)O)c1cc(Nc2cnc(OC)nc2)c(N(CC)C2CCOCC2)cc1F (single isomer, unassigned) [Example 859, 3-(4-(ethyl (tetrahydro-2H-pyran-4-yl)amino)-2-fluoro-5-((2-methoxy-pyrimidin-5-yl)amino)phenyl) pentanoic acid]",< 5 nM

# Further lines, results first:
row,IC50,SMILES
1,< 50 nM,"CCCN(c1ccc([C@H](CC)CC(=O)O)cc1Nc1ccc2nc(C)sc2c1)C1CCOCC1 (single isomer, unassigned) [Example 548]"
2,> 50 nM,"CCC(CC(=O)O)c1ccc(N2CCN(C(=O)OC)CC2)c(Nc2ccc(C#N)cc2)c1 (single isomer, unassigned) [Example 668 Enantiomer 1, 3-(3-((4-Cyanophenyl)amino)-4-(4-(methoxycarbonyl)piperazin-1-yl)phenyl)pentanoic acid]"
3,< 50 nM,"CCCN(c1ccc([C@@H](COC)CC(=O)O)cc1Nc1ccc(OC)nc1)C1CCOCC1 (single isomer, unassigned) [Example 565]"
4,< 50 nM,"CCN(c1ccc(C(CC)(CC)CC(=O)O)cc1NC(=O)Nc1ccc(C#N)cc1)C1CCOCC1 [Example 31, 3-(3-(3-(4-cyanophenyl)ureido)-4-(ethyl(tetrahydro-2H-pyran-4-yl)amino)phenyl)-3-ethylpentanoic acid]"
5,< 50 nM,"CCOc1ccc(Nc2cc(C(COC)CC(=O)O)cc(F)c2N(CC(C)C)CC(C)C)cc1 (single isomer, unassigned) [Example 923, 3-(4-(diisobutylamino)-3-((4-ethoxyphenyl)amino)-5-fluorophenyl)-4-methoxybutanoic acid]"
